The target in the assay is T1, CFTR (F508del/MF-HBE cells) (Homo sapiens, UniProt P13569, DEL508-508).
T1 construct: human bronchial epithelial (HBE) cells derived from CF subjects heterozygous for F508del and a minimal function CFTR mutation; endogenous in cells; host or cells: primary human bronchial epithelial cells from CF subjects (F508del/MF genotype)
The experiment in a line: Ussing chamber assay of CFTR-mediated short-circuit currents (identification of potentiator compounds). It counts as cell-based. Conditions: CFTR-mediated ISC in F508del/MF-HBE cells; incubated 18-24 hours at 37° C. with 10 μM (14S)-8-[3-(2-{dispiro[2.0.2.1]heptan-7-yl}ethoxy)-1H-pyrazol-1-yl]-...-2,2,4-trione, 20% human serum. The procedure:
Ussing Chamber Assay of CFTR-Mediated Short-Circuit Currents
Ussing chamber experiments were performed using human bronchial epithelial (HBE) cells derived from CF subjects heterozygous for F508del and a minimal function CFTR mutation (F508del/MF-HBE) and cultured as previously described (Neuberger T, Burton B, Clark H, Van Goor F Methods Mol Biol 2011:741:39-54). After four days the apical media was removed, and the cells were grown at an air liquid interface for >14 days prior to use.
To isolate the CFTR-mediated short-circuit (ISC) current, F508del/MF-HBE grown on Costar® Snapwell™ cell culture inserts were mounted in an Ussing chamber and the transepithelial ISC was measured under voltage-clamp recording conditions (Vhold=0 mV) at 37° C. The basolateral solution contained (in mM) 145 NaCl, 0.83 K2HPO4, 3.3 KH2PO4, 1.2 MgCl2, 1.2 CaCl2), 10 Glucose, 10 HEPES (pH adjusted to 7.4 with NaOH) and the apical solution contained (in mM) 145 NaGluconate, 1.2 MgCl2, 1.2 CaCl2), 10 glucose, 10 HEPES (pH adjusted to 7.4 with NaOH) and 30 μM amiloride to block the epithelial sodium channel. Forskolin (20 μM) was added to the apical surface to activate CFTR, followed by apical addition of a CFTR inhibitor cocktail consisting of BPO, GlyH-101 and CFTR inhibitor 172 (each at 20 μM final assay concentration) to specifically isolate CFTR currents. The CFTR-mediated ISC (μA/cm^2) for each condition was determined from the peak forskolin response to the steady-state current following inhibition.
Identification of Potentiator Compounds
The activity of the CFTR potentiator compounds on the CFTR-mediated ISC was determined in Ussing chamber studies as described above. The F508del/MF-HBE cell cultures were incubated with the potentiator compounds at a range of concentrations in combination with 10 μM (14S)-8-[3-(2-{dispiro[2.0.2.1]heptan-7-yl}ethoxy)-1H-pyrazol-1-yl]-12,12-dimethyl-2λ^6-thia-3,9,11,18,23-pentaazatetracyclo [17.3.1.111,14.05,10]tetracosa-1(22),5,7,9,19(23),20-hexaene-2,2,4-trione for 18-24 hours at 37° C. and in the presence of 20% human serum. The concentration of potentiator compounds and (14S)-8-[3-(2-{dispiro[2.0.2.1]heptan-7-yl}ethoxy)-1H-pyrazol-1-yl]-12,12-dimethyl-2λ^6-thia-3,9,11,18,23-pentaazatetracyclo [17.3.1.111,14.05,10]tetracosa-1(22),5,7,9,19(23),20-hexaene-2,2,4-trione used during the 18-24 hours incubations was kept constant throughout the Ussing chamber measurement of the CFTR-mediated ISC to ensure compounds were present throughout the entire experiment. The efficacy and potency of the putative F508del potentiators was compared to that of the known Vertex potentiator, ivacaftor (N-[2,4-bis(1,1-dimethylethyl)-5-hydroxyphenyl]-1,4-dihydro-4-oxoquinoline-3-carboxamide).

T1 sequence (P13569 with tags, fused parts or gaps DEL508-508): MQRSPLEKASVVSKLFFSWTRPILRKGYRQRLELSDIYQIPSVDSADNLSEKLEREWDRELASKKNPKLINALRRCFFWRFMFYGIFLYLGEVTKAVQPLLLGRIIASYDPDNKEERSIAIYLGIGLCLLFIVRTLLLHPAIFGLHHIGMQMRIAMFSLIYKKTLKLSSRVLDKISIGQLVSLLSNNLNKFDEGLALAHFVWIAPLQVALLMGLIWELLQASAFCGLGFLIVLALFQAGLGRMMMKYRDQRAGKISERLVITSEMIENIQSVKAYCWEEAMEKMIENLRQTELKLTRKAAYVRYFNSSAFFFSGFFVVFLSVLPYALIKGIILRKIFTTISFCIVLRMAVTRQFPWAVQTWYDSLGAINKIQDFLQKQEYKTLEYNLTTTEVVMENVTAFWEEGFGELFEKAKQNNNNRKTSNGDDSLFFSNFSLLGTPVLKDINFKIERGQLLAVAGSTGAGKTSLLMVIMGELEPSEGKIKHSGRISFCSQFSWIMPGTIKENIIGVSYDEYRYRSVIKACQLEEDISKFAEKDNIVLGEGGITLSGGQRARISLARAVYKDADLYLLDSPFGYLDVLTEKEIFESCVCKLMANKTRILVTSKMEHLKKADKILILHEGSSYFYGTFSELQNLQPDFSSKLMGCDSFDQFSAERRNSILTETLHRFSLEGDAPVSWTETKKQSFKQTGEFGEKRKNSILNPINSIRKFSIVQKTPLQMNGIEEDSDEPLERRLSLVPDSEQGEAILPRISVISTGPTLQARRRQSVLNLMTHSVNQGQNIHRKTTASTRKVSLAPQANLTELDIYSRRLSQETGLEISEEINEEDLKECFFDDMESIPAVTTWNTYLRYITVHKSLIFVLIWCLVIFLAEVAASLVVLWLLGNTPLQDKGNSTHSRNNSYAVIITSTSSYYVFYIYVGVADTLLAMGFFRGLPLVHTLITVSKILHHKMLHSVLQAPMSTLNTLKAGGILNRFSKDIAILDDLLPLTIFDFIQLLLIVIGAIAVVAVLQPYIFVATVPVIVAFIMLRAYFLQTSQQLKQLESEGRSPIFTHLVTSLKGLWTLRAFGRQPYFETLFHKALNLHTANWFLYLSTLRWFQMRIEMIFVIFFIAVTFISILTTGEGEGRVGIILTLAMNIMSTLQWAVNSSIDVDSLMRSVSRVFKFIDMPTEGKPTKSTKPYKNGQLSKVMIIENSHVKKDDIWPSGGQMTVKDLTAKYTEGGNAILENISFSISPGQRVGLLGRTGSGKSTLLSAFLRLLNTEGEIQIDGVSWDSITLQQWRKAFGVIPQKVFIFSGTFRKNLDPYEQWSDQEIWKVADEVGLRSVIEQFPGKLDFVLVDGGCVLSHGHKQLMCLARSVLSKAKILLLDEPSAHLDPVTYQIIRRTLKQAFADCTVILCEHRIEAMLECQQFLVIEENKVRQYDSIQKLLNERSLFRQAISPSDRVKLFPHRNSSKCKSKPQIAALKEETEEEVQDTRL

On to `Nc1cc(C(F)(F)F)c2nc1-c1nnc(o1)C(O)(C(F)(F)F)CCCC(=O)N1CCN2CC1` (single isomer, unassigned) [Compound 38, 5-amino-11-hydroxy-3,11-bis(trifluoromethyl)-21-oxa-1,8,9,16,22-pentaazatetracyclo[14.2.2.12,6.17,10]docosa-2,4,6(22),7,9-pentaen-15-one], for which the 50% effective concentration (EC50) (as a rule, the concentration needed to bring the measured effect to its halfway point) is above 1000 nM.

Consider `CN1CCCCCCC(O)(C(F)(F)F)C2=NN=C(O2)c2nc1c(S(C)(=O)=O)cc2N` (single isomer, unassigned) [Compound 39, 17-amino-13-methyl-15-methylsulfonyl-6-(trifluoromethyl)-19-oxa-3,4,13,18-tetrazatricyclo[12.3.1.12,5]nonadeca-1(18),2,4,14,16-pentaen-6-ol], for which the EC50 was below 500 nM.

As to `CN1CCCCCCC(O)(C(F)(F)F)C2=NN=C(O2)c2nc1c(S(C)(=O)=O)cc2N` (single isomer, unassigned) [Compound 40, 17-amino-13-methyl-15-methylsulfonyl-6-(trifluoromethyl)-19-oxa-3,4,13,18-tetrazatricyclo[12.3.1.12,5]nonadeca-1(18),2,4,14,16-pentaen-6-ol], the EC50 is 500 to 1000 nM.

On to `Nc1cc(C(F)(F)F)c2nc1-c1nnc(o1)C(O)(C(F)(F)F)CCCCCCN2CCO` (single isomer, unassigned) [Compound 41, 17-amino-13-(2-hydroxyethyl)-6,15-bis(trifluoromethyl)-19-oxa-3,4,13,18-tetrazatricyclo[12.3.1.12,5]nonadeca-1(18),2,4,14,16-pentaen-6-ol], for which the EC50 is below 500 nM.

On to `CN1CCN(C)c2nc(c(N)cc2C(F)(F)F)C2=NN=C(O2)C(O)(C(F)(F)F)CCC1=O` (single isomer, unassigned) [Compound 44, 17-amino-6-hydroxy-10,13-dimethyl-6,15-bis(trifluoromethyl)-19-oxa-3,4,10,13,18-pentazatricyclo[12.3.1.12,5]nonadeca-1(18),2,4,14,16-pentaen-9-one], for which the EC50 was 500 to 1000 nM.

On to `CC1(O)CCCCC[C@@H]2CCCN2c2nc(c(N)cc2C(F)(F)F)C2=NN=C1O2` (single isomer, unassigned) [Compound 45], for which the EC50 is below 500 nM.

With `CCOC(=O)CN1CCCCCCC(O)(C(F)(F)F)C2=NN=C(O2)c2nc1c(C(F)(F)F)cc2N` (single isomer, unassigned) [Compound 46, ethyl 2-[17-amino-6-hydroxy-6,15-bis(trifluoromethyl)-19-oxa-3,4,13,18-tetrazatricyclo[12.3.1.12,5]nonadeca-1(18),2,4,14,16-pentaen-13-yl]acetate], the EC50 is below 500 nM.

As for `CNC(=O)CN1CCCCCCC(O)(C(F)(F)F)C2=NN=C(O2)c2nc1c(C(F)(F)F)cc2N` (single isomer, unassigned) [Compound 48, 2-[17-amino-6-hydroxy-6,15-bis(trifluoromethyl)-19-oxa-3,4,13,18-tetrazatricyclo[12.3.1.12,5]nonadeca-1(18),2,4,14,16-pentaen-13-yl]-N-methyl-acetamide], the concentration for a half-maximal effect (EC50) is below 500 nM.

Regarding `Cc1cc(N)c2nc1N1CCC[C@H]1CCCCCC(O)(C(F)(F)F)C1=NN=C2O1` (single isomer, unassigned) [Compound 51], the EC50 was below 500 nM.

As to `CC(C)N1CCCCCCC(O)(C(F)(F)F)C2=NN=C(O2)c2nc1c(C(F)(F)F)cc2N` (single isomer, unassigned) [Compound 52, 17-amino-13-isopropyl-6,15-bis(trifluoromethyl)-19-oxa-3,4,13,18-tetrazatricyclo[12.3.1.12,5]nonadeca-1(18),2,4,14,16-pentaen-6-ol], the EC50 is below 500 nM.

As for `CC(C)N1CCCCCCC(O)(C(F)(F)F)C2=NN=C(O2)c2nc1c(C(F)(F)F)cc2N` (single isomer, unassigned) [Compound 53, 17-amino-13-isopropyl-6,15-bis(trifluoromethyl)-19-oxa-3,4,13,18-tetrazatricyclo[12.3.1.12,5]nonadeca-1(18),2,4,14,16-pentaen-6-ol], the EC50 is above 1000 nM.

In the case of `Nc1cc(C(F)(F)F)c2nc1-c1nnc(o1)C(O)(C(F)(F)F)CCCCC[C@@H]1COCCN21` (single isomer, unassigned) [Compound 54], the EC50 was below 500 nM.

Take `Nc1cc(C(F)(F)F)c2nc1-c1nnc(o1)C(O)(C(F)(F)F)CCCCC[C@@H]1COCCN21` (single isomer, unassigned) [Compound 55]: the EC50 was above 1000 nM.

In the case of `Nc1cc(C(F)(F)F)c2nc1-c1nnc(o1)C(O)(C(F)(F)F)CCCCCCN2` (single isomer, unassigned) [Compound 56, 17-amino-6,15-bis(trifluoromethyl)-19-oxa-3,4,13,18-tetrazatricyclo[12.3.1.12,5]nonadeca-1(18),2,4,14,16-pentaen-6-ol], the EC50 was below 500 nM.

As to `CN1CCCCCCC(C)(O)C2=NN=C(O2)c2nc1c(C(F)(F)F)cc2N` (single isomer, unassigned) [Compound 61, 17-amino-6,13-dimethyl-15-(trifluoromethyl)-19-oxa-3,4,13,18-tetrazatricyclo[12.3.1.12,5]nonadeca-1(17),2,4,14(18),15-pentaen-6-ol], the EC50 was below 500 nM.

As to `CN1CCCCCCC(C)(O)C2=NN=C(O2)c2nc1c(C(F)(F)F)cc2N` (single isomer, unassigned) [Compound 62, 17-amino-6,13-dimethyl-15-(trifluoromethyl)-19-oxa-3,4,13,18-tetrazatricyclo[12.3.1.12,5]nonadeca-1(17),2,4,14(18),15-pentaen-6-ol], the EC50 is below 500 nM.

With `CC(C)c1cc(N)c2nc1N1CCC[C@H]1CCCCCC(O)(C(F)(F)F)C1=NN=C2O1` (single isomer, unassigned) [Compound 63], the EC50 is below 500 nM.

Regarding `CC1CCCCCC(O)(C(F)(F)F)C2=NN=C(O2)c2nc(c(C(F)(F)F)cc2N)N1` (single isomer, unassigned) [Compound 65, 17-amino-12-methyl-6,15-bis(trifluoromethyl)-19-oxa-3,4,13,18-tetrazatricyclo[12.3.1.12,5]nonadeca-1(18),2,4,14,16-pentaen-6-ol], the EC50 was below 500 nM.

Turning to `CC1CCCCCC(O)(C(F)(F)F)C2=NN=C(O2)c2nc(c(C(F)(F)F)cc2N)N1` (single isomer, unassigned) [Compound 66, 17-amino-12-methyl-6,15-bis(trifluoromethyl)-19-oxa-3,4,13,18-tetrazatricyclo[12.3.1.12,5]nonadeca-1(18),2,4,14,16-pentaen-6-ol], the EC50 is below 500 nM.

On to `Nc1cc(C(F)(F)F)c2nc1-c1nnc(o1)C(O)(C(F)(F)F)c1cccc(c1)CCC[C@@H]1CCCN21` (single isomer, unassigned) [Compound 70], for which the EC50 is below 500 nM.

`Nc1ccc2nc1-c1nnc(o1)C(O)(C(F)(F)F)CCCCC[C@@H]1CCCN21` (single isomer, unassigned) [Compound 71]: the EC50 was below 500 nM.

As to `Nc1ccc2nc1-c1nnc(o1)C(O)(C(F)(F)F)CCCCC[C@@H]1CCCN21` (single isomer, unassigned) [Compound 72], the half-maximal effective concentration (EC50) is above 1000 nM.

As for `Nc1cc(C(F)(F)F)c2nc1-c1nnc(o1)C(O)(C(F)(F)F)CCCCCCN2C1CCC1` (single isomer, unassigned) [Compound 73, 17-amino-13-cyclobutyl-6,15-bis(trifluoromethyl)-19-oxa-3,4,13,18-tetrazatricyclo[12.3.1.12,5]nonadeca-1(18),2,4,14,16-pentaen-6-ol], the EC50 was below 500 nM.

On to `CN1CCCCCCC(O)(c2ccccc2)C2=NN=C(O2)c2nc1c(C(F)(F)F)cc2N` (single isomer, unassigned) [Compound 76, 17-amino-13-methyl-6-phenyl-15-(trifluoromethyl)-19-oxa-3,4,13,18-tetrazatricyclo[12.3.1.12,5]nonadeca-1(18),2,4,14,16-pentaen-6-ol], for which the 50% effective concentration (EC50) is below 500 nM.

These data come from patent US12324802B2, “Modulators of cystic fibrosis transmembrane conductance regulator” (Vertex Pharmaceuticals Incorporated, priority 2020, dated 2025).
